Laboratory results published in US20260021119A1, “TETRACYCLINE DERIVATIVES” (ICM (INSTITUT DU CERVEAU ET DE LA MOELLE ÉPINIÈRE), priority 2022, published 2026).
Entries after “also recorded” stand apart in the source; their conditions may differ.

Legend:
alpha-synuclein = alpha-synuclein (Homo sapiens, UniProt P37840); test: alpha-synuclein aggregation, thioflavin T (ThT) fluorescence; type: biochemical
Description: The antiaggregant effect of the compound of formula (Ia) according to the present invention on alpha-synuclein (αS) was evaluated in vitro by measuring the fluorescence intensity of the probe thioflavin T (ThT), a molecule that specifically binds to cross-β structures characteristic of amyloid-like aggregation. The compound of formula (Ia) was dissolved in dimethylsulfoxide to reach a concentration of […]. In this assay, 70 μM of alpha-synuclein was incubated with and without 10 μM, 20 μM and 50 μM of the compound of formula (Ia), under orbital agitation (600 rpm), at 37° C., for 5 days. After the incubation time, Tht was added to each sample and changes in the emission fluorescence spectra (λex=450 and λem=[…]) was monitored using a Horiba Fluoromax CP4 spectrofluorometer.

[1] = tested on: formalin-induced pain behavior; test: Formalin-induced nociceptive pain test; type: in vivo, C57/BL6 mice; conditions: for pain-related responses in the formalin test (overall): mice; for sex dependence of analgesic response: single injection, (C) 10 mg/kg, (Ia) 40 mg/kg, male vs female mice, phase 2
Description: The analgesic effects of the compound of formula (C) described in Example 6 (administered at doses of 5 mg/kg of animal, 10 mg/kg of animal and 20 mg/kg of animal) and the compound of formula (Ia) according to the present invention (administered at doses of 10 mg/kg of animal, 20 mg/kg of animal, and 40 mg/kg of animal) were tested using the formalin-induced nociceptive pain model (as disclosed in the publication Lopes DM, Cater HL, Thakur M et al. “A refinement to the formalin test in mice [version 2; peer review: 2 approved]” F1000Research 2019, 8:891).
To test the anti-pain effects of compounds (Ia) and (C) according to the present invention, a formalin pain test was performed, which consists in subcutaneously injecting 50 μl of a 5.0% formalin solution into the right hind paw of adult C57/BL6 mice (Taylor and Basbaum, J Pain, 2000) before scoring pain behavior. The intensity of pain was estimated by recording the cumulative time (sec) during which animals develop a licking/bitting behavior in response to formalin injection. This response is divided into a transient early (Phase I) phase followed by a more prolonged late (Phase II) phase. Pain scoring is performed by experimenters blinded to test treatments using a video recording of formalin-induced pain behavior.

[2] = tested on: Gram+ and Gram- bacteria (S. aureus, E. coli, E. faecalis, P. aeruginosa); test: Antibiotic activity, summary over the bacterial strains (Examples 3 and 7); type: cell-based; set-up: activity against Gram+ and Gram− bacteria: dose or concentration left out as unconfirmed; key to Antibiotic activity: low: Weak antibiotic activity on only 1 of the 3 bacterial strains (i.e. S aureus); high: Strong antibiotic activity on all 3 bacterial strains; Significant antibiotic activity on two bacterial strains
Description: Bacterial strains used in this study were: S. aureus (ATCC25923), E. coli (ATCC25922), E. faecalis (ATCC29212) and P. aeruginosa (PA01). Strains were maintained at −80° C. in 15% (v/v) glycerol for cryoprotection. Bacteria were routinely grown in Mueller-Hinton (MH) broth at 37° C.
The susceptibility of bacterial strains to antibiotics and compounds was determined in microplates using the standard broth dilution method in accordance with the recommendations of the Comité de 1′Antibiogramme de la Société Française de Microbiologie (CA-SFM). (Members of the SFM Antibiogram Committee, R. Int. J. Antimicrob. Agents 2003, 21, 364). Briefly, the Minimal Inhibitory Concentrations (MICs) were determined with an inoculum of 10^5 CFU in 200 μL of MH broth containing two-fold serial dilutions of each drug. […] To determine all MICs, the measurements were independently repeated in triplicate.
The compound of formula (Ia) according to the invention was tested against clinical isolates Gram-bacteria (P. aeruginosa, E. coli) and Gram+ bacteria (S. aureus, E. faecalis). Minimum inhibitory concentrations (MIC) were tentatively determined and compared to known antibiotic tetracyclines (doxycycline, demeclocycline, chlortetracycline) and to the compound of formula (B) disclosed in Example 1 of the present application. The test was reproduced twice and the average MIC were calculated.
(§1) The properties of tetracycline derivatives, including the compound of formula (Ia) according to the present invention, were compared regarding the neuroprotection, anti-inflammatory effects, anti-aggregant activity, and antibiotic activity. The properties were evaluated as described herein above.
(§2) EC50s, IC50s determined graphically, *Rescue of dopamine neurons from spontaneous oxidative stress; ** TNF α release inhibition under LPS exposure, ^#Weak antibiotic activity on only 1 of the 3 bacterial strains (i.e. S aureus). ##Strong antibiotic activity on all 3 bacterial strains. ^###Significant antibiotic activity on two bacterial strains.

[3] = Brain penetration after single subcutaneous injection; type: in vivo; conditions: mouse, brain and serum, sc; 40 mg/kg single subcutaneous injection, Swiss mice, 30 min to 24 h, n=3; read-out: brain-to-plasma ratio calculated from the area under the concentration time curves
Description: Adult Swiss mice received a single subcutaneous injection of 40 mg/kg of the compound of formula (Ia) according to the present invention, the compound of formula (C), or doxycycline diluted in saline with 5% DMSO and 5% Tween 80 (doxycycline was used as a reference tetracycline). The mice were sacrificed 30 min, 1 h, 8 h, and 24 h after treatment. After sacrifice, brain and serum samples were collected and processed at each time point for tetracycline dosage, using an UHPLC system coupled with a triple quadrupole mass spectrometer LCMS-8030 (Shimadzu Corporation, Kyoto, Japan).

[4] = tested on: dopaminergic neurons (TH+ neurons); test: Neuroprotection: rescue of dopamine neurons from spontaneous oxidative stress in primary cultures; type: cell-based; conditions: for EC50: Neuron, rescue of dopamine neurons from spontaneous oxidative stress, determined graphically, read-out: Neuroprotection (EC 50 μM)
Description: In primary cultures of dopaminergic neurons, TH+ neurons suffer from oxidative stress, leading to the death of the neurons after a few days. When cultured in the presence of a positive reference (apotransferrin), the dopaminergic neurons survive. The neuroprotective effects of 10 μM of doxycycline (DOX) and of 3 μM or 5 μM of the compound of formula (Ia) according to the present invention were evaluated, compared to the effect of 100 μg/mL of apotransferrin (APO).
as §1, §2

Structure (SMILES)	Anti aggregant activity at 20 μM (alpha-synuclein)	reduction of nociceptive pain, phase 1 and 2 ([1]; 5 mg/kg, sub-chronic regimen (6 subcutaneous injections), male adult C57/BL6 mice, not different from morphine 10 mg/kg)	pain-related responses in the formalin test (overall) [1]	anti-nociceptive effects, phases 1 and 2 ([1]; single injection 10 mg/kg prior to formalin, not different from morphine 10 mg/kg)	sex dependence of analgesic response [1]	Antibiotic activity ([2]; summary over bacterial strains)	Kp [3]	EC50 [4] [µM]	inhibition of alpha-synuclein aggregation (ThT fluorescence) (alpha-synuclein; 10 μM, 20 μM and 50 μM compound, 70 μM alpha-synuclein, 37° C., 5 days, vs control, dose dependent)	analgesic effects, phases 1 and 2 ([1]; between 20 and 40 mg/kg, sub-chronic regimen, subcutaneous, male adult C57/BL6 mice)	anti-nociceptive effects, both phases ([1]; single injection 40 mg/kg prior to formalin)	activity against Gram+ and Gram− bacteria [2]	neuroprotective effect ([4]; 3 μM and 5 μM, compared to apotransferrin 100 μg/mL)
NC(=O)C1=C(O)CC2CC3C(=C(O)C2C1=O)C(=O)c1c(O)ccc(Cl)c1[C@H]3O (stereo partly drawn) [Compound of formula (C)]	yes	highly effective	reduce pain-related responses; also recorded: showed anti-pain effects	robust anti-nociceptive effects	male mice exhibited a better analgesic response	low^#	0.27 ± 0.13	0.81					
C[C@H]1c2cccc(O)c2C(=O)C2=C(O)C3C(=O)C(C(N)=O)=C(O)C[C@@H]3[C@@H](O)[C@@H]21 (stereo partly drawn) [Compound of formula (Ia), (4aS,5R,5aR,6R)-3,5,10,12-tetrahydroxy-6-methyl-1,11-dioxo-1,4,4a,5,5a,6,11,12a-octahydrotetracene-2-carboxamide]	yes		reduce pain-related responses; also recorded: showed anti-pain effects		females responded more effectively		0.21 ± 0.05	1.58	significantly inhibits	exerted analgesic effects	exerted anti-nociceptive effects	did not show any activity	highly protective
